Data on nine compounds can be found in PubChem BioAssay (NCI).

Some test systems named below: A498 renal; OVCAR-3 ovarian; MALME-3M melanoma; MDA-MB-231 breast; SK-MEL-5 melanoma; OVCAR-5 ovarian; A549 NSCLC; SK-MEL-2 melanoma; NCI-H226 lung; HCT-116 colon.
Holding throughout (assay): NCI anticancer screen, dose series, 48 h

Several values for one entry are separate records, joined by “and”; a condition that tells them apart may be missing. Equal entries are not always repeated.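 Interpolation was linear, between the two tested concentrations surrounding the appropriate level; five concentrations were tested over 48 hours in 96-well plates. GI50 = concentration required for 50% inhibition of growth. At the TGI there is no net growth.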 A value given as a limit tells only on which side of the number the result lay.

For the compound `COc1ccc(C(O)c2ccccn2)cc1` (centres undefined), the TGI in the experiment on A498 renal, in the experiment with OVCAR-3 ovarian, with MALME-3M melanoma, in the experiment on MDA-MB-231 breast, in the experiment on SK-MEL-5 melanoma and in the experiment with OVCAR-5 ovarian was over 100 µM throughout. Also, the TGI in the experiment on A549 NSCLC, in the experiment with SK-MEL-2 melanoma, in the experiment on NCI-H226 lung and in the experiment with HCT-116 colon was over 100 µM each time.
With `Oc1[nH]c2ccccc2c1C=Nc1ccc(-n2cncn2)cc1`, the GI50 with A498 renal is over 16.7 µM; in the experiment with OVCAR-3 ovarian, over 20.9 µM; in the experiment with MALME-3M melanoma, over 16 µM; in the experiment with MDA-MB-231 breast, over 25 µM; with SK-MEL-5 melanoma, 8.74 µM; in the experiment with OVCAR-5 ovarian it was over 25 µM. For the same compound, the GI50 was over 18.5 µM in the experiment with A549 NSCLC, over 25 µM in the experiment on SK-MEL-2 melanoma, 8.34 µM with NCI-H226 lung and over 22.1 µM in the experiment with HCT-116 colon. Further, the TGI with A498 renal, in the experiment with OVCAR-3 ovarian, in the experiment with MALME-3M melanoma, in the experiment on MDA-MB-231 breast, in the experiment on SK-MEL-5 melanoma and in the experiment with OVCAR-5 ovarian was over 25 µM each time. For the same compound, the TGI with A549 NSCLC is over 25 µM; in the experiment with SK-MEL-2 melanoma, over 25 µM; with NCI-H226 lung, over 22.1 µM; in the experiment with HCT-116 colon, over 25 µM.
On to `O=C1NC(=NCCc2ccc(Br)cc2)S/C1=C\c1ccc2ncccc2c1`, for which the GI50 in the experiment on A498 renal is 6.29 µM; with OVCAR-3 ovarian it was over 25 µM; in the experiment with MALME-3M melanoma, over 21.7 µM; with MDA-MB-231 breast, over 25 µM; with SK-MEL-5 melanoma, over 21 µM; in the experiment on OVCAR-5 ovarian, over 25 µM. The GI50 in the experiment with A549 NSCLC is over 25 µM; in the experiment with SK-MEL-2 melanoma it was 21.6 µM; in the experiment on NCI-H226 lung, over 25 µM; in the experiment with HCT-116 colon it was 16.7 µM. The TGI in the experiment on A498 renal, in the experiment with OVCAR-3 ovarian, in the experiment with MALME-3M melanoma, with MDA-MB-231 breast, with SK-MEL-5 melanoma and in the experiment on OVCAR-5 ovarian was over 25 µM throughout. The TGI in the experiment on A549 NSCLC, in the experiment on SK-MEL-2 melanoma, with NCI-H226 lung and with HCT-116 colon was over 25 µM each time.
As to `CCC(c1ccccc1)c1cc(C(C)(C)C)cc(C(C)(C)C)c1O` (centres undefined), the TGI in the experiment on A498 renal turned out to be 33.9 µM; in the experiment on OVCAR-3 ovarian, 27.2 µM; in the experiment with MALME-3M melanoma it was 26.8 µM; in the experiment on MDA-MB-231 breast, 31.9 µM; with SK-MEL-5 melanoma, 32.7 µM; with OVCAR-5 ovarian, 26.6 µM. Besides, the TGI in the experiment on A549 NSCLC was 29.8 µM; in the experiment with SK-MEL-2 melanoma it was 29 µM; with NCI-H226 lung, 35.1 µM; in the experiment with HCT-116 colon, 25.5 µM.
In the case of `CCC(=O)Nc1nnc(Cc2ccc(OC)c(OC)c2)s1`, the GI50 in the experiment with A498 renal, in the experiment with OVCAR-3 ovarian, in the experiment with MALME-3M melanoma, in the experiment on MDA-MB-231 breast, in the experiment on SK-MEL-5 melanoma and with OVCAR-5 ovarian was over 100 µM each time. The GI50 in the experiment with A549 NSCLC, in the experiment on SK-MEL-2 melanoma, with NCI-H226 lung and in the experiment on HCT-116 colon was over 100 µM in each case. The TGI in the experiment with A498 renal, with OVCAR-3 ovarian, in the experiment with MALME-3M melanoma, in the experiment with MDA-MB-231 breast, in the experiment on SK-MEL-5 melanoma and in the experiment on OVCAR-5 ovarian was over 100 µM each time. The TGI with A549 NSCLC, in the experiment on SK-MEL-2 melanoma, in the experiment with NCI-H226 lung and with HCT-116 colon was over 100 µM throughout.
Turning to `COc1ccc2c(c1)/C(=N/OC(C)=O)c1c-2c(OC)nc2ccccc12`, the GI50 is over 100 µM with A498 renal; over 100 µM in the experiment on OVCAR-3 ovarian; 57.3 µM in the experiment with MALME-3M melanoma; 35 µM in the experiment with MDA-MB-231 breast; over 100 µM with SK-MEL-5 melanoma; over 100 µM in the experiment on OVCAR-5 ovarian. The GI50 with A549 NSCLC, in the experiment with SK-MEL-2 melanoma, in the experiment with NCI-H226 lung and in the experiment on HCT-116 colon was over 100 µM each time. The TGI in the experiment on A498 renal, with OVCAR-3 ovarian, in the experiment with MALME-3M melanoma, in the experiment on MDA-MB-231 breast, in the experiment on SK-MEL-5 melanoma and in the experiment with OVCAR-5 ovarian was over 100 µM in each case. Further, the TGI in the experiment with A549 NSCLC, with SK-MEL-2 melanoma, in the experiment with NCI-H226 lung and with HCT-116 colon was over 100 µM each time.
With `Cc1ccc(-c2nc3sc(C)cn3c2/C=C2\C(=O)Nc3ccc(Cl)cc32)cc1`, the GI50 in the experiment on A498 renal is 16.3 µM; in the experiment with OVCAR-3 ovarian, 24.6 µM; in the experiment on MALME-3M melanoma, 14.9 µM; in the experiment with MDA-MB-231 breast, 4.35 µM; in the experiment on SK-MEL-5 melanoma it was 15.5 µM; in the experiment with OVCAR-5 ovarian it was 18.8 µM. The GI50 is 14.1 µM in the experiment with A549 NSCLC, 12.1 µM in the experiment with SK-MEL-2 melanoma, 22.9 µM in the experiment on NCI-H226 lung and 12.2 µM in the experiment on HCT-116 colon. For the same compound, the TGI came out at 36 µM in the experiment with A498 renal; 62.8 µM with OVCAR-3 ovarian; 35.6 µM with MALME-3M melanoma; 20.1 µM with MDA-MB-231 breast; 30.4 µM in the experiment on SK-MEL-5 melanoma; 38.5 µM with OVCAR-5 ovarian. The TGI was 27.8 µM in the experiment with A549 NSCLC, 28.6 µM in the experiment with SK-MEL-2 melanoma, over 100 µM with NCI-H226 lung and 24.7 µM in the experiment on HCT-116 colon.
Consider `C=CCSC(C)=O`, for which the TGI in the experiment on A498 renal, with OVCAR-3 ovarian, in the experiment with MALME-3M melanoma, in the experiment on MDA-MB-231 breast, with SK-MEL-5 melanoma and in the experiment with OVCAR-5 ovarian was over 100 µM throughout. The TGI in the experiment with A549 NSCLC, in the experiment on SK-MEL-2 melanoma, in the experiment with NCI-H226 lung and with HCT-116 colon was over 100 µM throughout.
As to `CNC(=O)c1cc(Oc2ccc(NC(=O)Nc3cc(C(C)(C)C)nn3-c3ccc4ncccc4c3)c(F)c2)ccn1`, the GI50 with A498 renal is 1.26 µM and 0.307 µM; in the experiment on OVCAR-3 ovarian, 2.36 µM and 2.21 µM; in the experiment on MALME-3M melanoma, 0.212 µM and 0.0536 µM; with MDA-MB-231 breast, 0.827 µM and 0.963 µM; with SK-MEL-5 melanoma, 1.35 µM and 1.51 µM; in the experiment with OVCAR-5 ovarian, 2.1 µM and 3.34 µM. Also, the GI50 with A549 NSCLC was 1.83 µM and 1.8 µM; in the experiment on SK-MEL-2 melanoma it was 1.81 µM and 2.55 µM; in the experiment on NCI-H226 lung, 0.272 µM and 0.822 µM; in the experiment on HCT-116 colon it was 1.41 µM and 1.37 µM. For the same compound, the TGI was 3.21 µM and 2.42 µM in the experiment with A498 renal; 7.96 µM and 6.35 µM in the experiment on OVCAR-3 ovarian; 1.31 µM and 0.5 µM in the experiment with MALME-3M melanoma; 7.12 µM and 5.78 µM in the experiment with MDA-MB-231 breast; 2.86 µM and 3.14 µM in the experiment with SK-MEL-5 melanoma; 7.72 µM and 6.5 µM with A549 NSCLC. Besides, the TGI is 4.34 µM and 5.45 µM with SK-MEL-2 melanoma; 7.24 µM and 4.26 µM in the experiment with NCI-H226 lung; 7.28 µM and 5.94 µM with HCT-116 colon.
